In patent US8546389B2 (priority 2010, dated 2013):

What was measured:
[1] = test system: genotype 1b (Con 1) subgenomic replicon cell line; experiment: HCV replicon assay, genotype 1b (Renilla luciferase); assay type: cell-based, HCV genotype 1b (Con 1); conditions: Hepatitis C virus; genotype 1b replicon, 72 hours, luciferase; read-out: genotype 1b EC50 (range class)
Protocol: A genotype 1b (Con 1) subgenomic replicon cell line based on Blight et al., Science 2000 290: 1972-1974, modified to express a Renilla luciferase reporter gene was used to assess antiviral activity of test compounds. Cell cultures were maintained in a sub-confluent state in DMEM with glutamine, 10% heat-inactivated foetal bovine serum (FBS) and G418 (Geneticin®).
For assay, cells were seeded at a density of 7000 cells/well into 96 well tissue culture trays in culture media lacking G418. Compounds were tested in a three fold dilution series, for example starting from 50 uM. After 72 hours incubation at 37° C. and 5% CO2, Renilla luciferase activity was quantified via the Promega Renilla Luciferase or Renilla-Glo™ Luciferase Assay Systems (Promega corporation. The same method was employed for replicon assays using subgenomic genotype 1a and 2a replicon cell lines with a seeding cell density of 5000 cells/well for the 2a cell lines.
The compound concentration that reduced luciferase activity by 50% (EC50) was calculated using non-linear regression.

1b (BK) NS5bΔ21 = 1b (BK) NS5bΔ21 (Hepatitis C virus genotype 1b (isolate BK) (HCV), UniProt P26663); experiment: HCV polymerase inhibition assay, genotype 1b; assay type: biochemical, HCV genotype 1b (BK); conditions: 1b (BK) NS5bΔ21, 33P-GTP incorporation; read-out: 1b polymerase IC50 (range class)
Protocol: HCV polymerase reactions were carried out using a modified method of Howe et al., Antimicrobial Agents and Chemotherapy 2004 48(12): 4813-4821. Reactions contained a final concentration of, 0.5% DMSO, 50 nM, 1b (BK) NS5bΔ21, 20 mM Tris-HCl pH 7.5, 5 mM MgCl2, 5 mM MnCl2, 3 mM DTT, 0.05% BSA, 0.2 U/μL RNasin, 10 μg/mL Poly(rC) template, GTP (at Km) and 0.05 μCi/μL ^33P-GTP in a total reaction volume of 50 μL. Compounds were tested in a three fold dilution series, for example starting from 50 μM. Reactions were initiated with the addition of GTP and terminated after 1 hour with 50 μL ice cold 0.2 M EDTA. Terminated reactions were transferred to DEAE 96-well filter plates, unincorporated nucleotides washed from the filters and 50 μL scintillation fluid added prior to reading on a scintillation counter. Similarly, a genotype 3a (VRL-69) NS5bΔ21 polymerase enzyme assay was conducted using essentially the same method.
The compound concentration that reduced ^33P-GTP incorporation by 50% (IC50) was calculated using non-linear regression.

Chain of 1b (BK) NS5bΔ21 (P26663 2420-2989): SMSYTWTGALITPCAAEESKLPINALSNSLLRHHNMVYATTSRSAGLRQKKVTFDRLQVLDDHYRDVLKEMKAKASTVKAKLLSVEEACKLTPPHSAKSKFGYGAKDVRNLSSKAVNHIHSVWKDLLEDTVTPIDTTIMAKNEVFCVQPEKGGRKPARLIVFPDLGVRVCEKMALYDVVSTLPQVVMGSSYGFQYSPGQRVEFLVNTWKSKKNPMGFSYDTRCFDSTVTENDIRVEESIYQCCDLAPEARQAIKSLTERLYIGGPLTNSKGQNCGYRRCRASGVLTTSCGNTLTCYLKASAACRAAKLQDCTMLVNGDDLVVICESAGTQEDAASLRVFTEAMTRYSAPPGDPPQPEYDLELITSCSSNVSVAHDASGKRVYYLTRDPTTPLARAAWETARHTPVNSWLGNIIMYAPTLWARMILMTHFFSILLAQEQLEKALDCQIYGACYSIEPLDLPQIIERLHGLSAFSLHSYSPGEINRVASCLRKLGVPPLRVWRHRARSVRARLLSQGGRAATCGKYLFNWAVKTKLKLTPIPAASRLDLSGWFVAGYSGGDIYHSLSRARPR

## CCOC(=O)CCCC(c1cc2nn(-c3ccc(C)cc3)c(C(=O)NC)c2cc1C1CC1)S(C)(=O)=O (racemic) [Compound 85, ethyl 5-[5-cyclopropyl-3-(methylcarbamoyl)-2-(4-methylphenyl)-2H-indazol-6-yl]-5-(methylsulfonyl)pentanoate]
[1]
  EC50: 10 to 50 µM
1b (BK) NS5bΔ21
  IC50: 10 to 50 µM

## CCC(c1cc2nn(-c3ccc(C)cc3)c(C(=O)NC)c2cc1C1CC1)S(C)(=O)=O (racemic) [Compound 86, 5-cyclopropyl-N-methyl-2-(4-methylphenyl)-6-[1-(methylsulfonyl)propyl]-2H-indazole-3-carboxamide]
[1]
  EC50: 1 to 9.99 µM
1b (BK) NS5bΔ21
  IC50: 10 to 50 µM

## CNC(=O)c1c2cc(C3CC3)c(N(CCCNC(=O)[C@@H]3CC(=O)N(C)C3)S(C)(=O)=O)cc2nn1-c1ccc(Br)cc1 (racemic) [Compound 182]
[1]
  EC50: 1 to 9.99 µM
1b (BK) NS5bΔ21
  IC50: < 0.99 µM

## CNC(=O)c1c2cc(C3CC3)c(N([C@H]3CCNC3)S(C)(=O)=O)cc2nn1-c1ccc(Br)cc1 (racemic) [Compound 195]
[1]
  EC50: 10 to 50 µM
1b (BK) NS5bΔ21
  IC50: 1 to 9.99 µM

## CC[C@H](c1cc2nn(-c3ccc(F)cc3)c(C(=O)NC)c2cc1C1CC1)S(C)(=O)=O (racemic) [Compound 240]
[1]
  EC50: 10 to 50 µM
1b (BK) NS5bΔ21
  IC50: 10 to 50 µM

## CNC(=O)c1c2cc(C3CC3)c([C@@H]3CN(Cc4ccccc4)C[C@H]3C(C)=O)cc2nn1-c1ccc(Br)cc1 (relative stereo) [Compound 80, trans-6-(4-acetyl-1-benzylpyrrolidin-3-yl)-2-(4-bromophenyl)-5-cyclopropyl-N-methyl-2H-indazole-3-carboxamide]
[1]
  EC50: 1 to 9.99 µM

## CNC(=O)c1c2cc(C3CC3)c(NS(C)(=O)=O)cc2nn1-c1ccc(Br)cc1 [Compound 1, 2-(4-bromophenyl)-5-cyclopropyl-N-methyl-6-[(methylsulfonyl)amino]-2H-indazole-3-carboxamide]
[1]
  EC50: 1 to 9.99 µM
1b (BK) NS5bΔ21
  IC50: 10 to 50 µM

## CNC(=O)c1c2cc(C3CC3)c(N(CCO)S(C)(=O)=O)cc2nn1-c1ccc(Oc2ccc(F)cc2)cc1 [Compound 3, 5-cyclopropyl-2-[4-(4-fluorophenoxy)phenyl]-6-[(2-hydroxyethyl)-(methylsulfonyl)amino]-N-methyl-2H-indazole-3-carboxamide]
[1]
  EC50: < 0.99 µM
1b (BK) NS5bΔ21
  IC50: 1 to 9.99 µM

## CNC(=O)c1c2cc(C3CC3)c(N(CCNC(=O)Cc3nn[nH]n3)S(C)(=O)=O)cc2nn1-c1ccc(Br)cc1 [Compound 8, 2-(4-bromophenyl)-5-cyclopropyl-N-methyl-6-[(methylsulfonyl){2-[(2H-tetrazol-5-ylacetyl)amino]ethyl}amino]-2H-indazole-3-carboxamide]
[1]
  EC50: 10 to 50 µM
1b (BK) NS5bΔ21
  IC50: < 0.99 µM

## CNC(=O)c1c2cc(OC)c(N(CCO)S(C)(=O)=O)cc2nn1-c1ccc(F)cc1 [Compound 12, 2-(4-fluorophenyl)-6-[2-hydroxyethyl(methylsulfonyl)amino]-5-methoxy-N-methyl-indazole-3-carboxamide]
[1]
  EC50: 10 to 50 µM

## CNC(=O)c1c2cc(C3CC3)c(N(CCO)S(C)(=O)=O)cc2nn1-c1ccc(F)cc1 [Compound 14, 5-cyclopropyl-2-(4-fluorophenyl)-6-[(2-hydroxyethyl)(methylsulfonyl)amino]-N-methyl-2H-indazole-3-carboxamide]
[1]
  EC50: 1 to 9.99 µM
1b (BK) NS5bΔ21
  IC50: 10 to 50 µM

## CNC(=O)c1c2cc(C3CC3)c(N(CCOC(=O)c3ccccc3C(=O)O)S(C)(=O)=O)cc2nn1-c1ccc(F)cc1 [Compound 15, 2-[(2-{[5-cyclopropyl-2-(4-fluorophenyl)-3-(methylcarbamoyl)-2H-indazol-6-yl](methylsulfonyl)amino}ethoxy)carbonyl]benzoic acid]
1b (BK) NS5bΔ21
  IC50: 1 to 9.99 µM

## CNC(=O)c1c2cc(C3CC3)c(N(CCO)S(C)(=O)=O)cc2nn1-c1ccc(Oc2ccccc2F)cc1 [Compound 18]
[1]
  EC50: 1 to 9.99 µM
1b (BK) NS5bΔ21
  IC50: 1 to 9.99 µM

## CNC(=O)c1c2cc(C3CC3)c(N(CCO)S(C)(=O)=O)cc2nn1-c1ccc(Nc2ccc(F)cc2)cc1 [Compound 19]
[1]
  EC50: < 0.99 µM
1b (BK) NS5bΔ21
  IC50: < 0.99 µM

## CCN(c1cc2nn(-c3ccc(Br)cc3)c(C(=O)NC)c2cc1C1CC1)S(C)(=O)=O [Compound 20]
[1]
  EC50: < 0.99 µM
1b (BK) NS5bΔ21
  IC50: < 0.99 µM

## CCN(c1cc2nn(-c3ccc(Oc4ccc(F)cc4)cc3)c(C(=O)NC)c2cc1C1CC1)S(C)(=O)=O [Compound 23]
[1]
  EC50: < 0.99 µM
1b (BK) NS5bΔ21
  IC50: < 0.99 µM

## CNC(=O)c1c2cc(C3CC3)c(N(CCO)S(C)(=O)=O)cc2nn1-c1ccc(Br)cc1 [Compound 24]
[1]
  EC50: < 0.99 µM
1b (BK) NS5bΔ21
  IC50: < 0.99 µM

## CCN(c1cc2nn(-c3ccc(Nc4ccccc4F)cc3)c(C(=O)NC)c2cc1C1CC1)S(C)(=O)=O [Compound 25]
[1]
  EC50: < 0.99 µM
1b (BK) NS5bΔ21
  IC50: < 0.99 µM

## CNC(=O)c1c2cc(C3CC3)c(N(CCO)S(C)(=O)=O)cc2nn1-c1ccc(Nc2ccccc2F)cc1 [Compound 26]
[1]
  EC50: < 0.99 µM
1b (BK) NS5bΔ21
  IC50: < 0.99 µM

## CNC(=O)c1c2cc(C3CC3)c(N(CCO)S(C)(=O)=O)cc2nn1-c1ccc(Nc2ccccc2)cc1 [Compound 27]
[1]
  EC50: < 0.99 µM
1b (BK) NS5bΔ21
  IC50: < 0.99 µM

## CNC(=O)c1c2cc(C3CC3)c(N(CCCO)S(C)(=O)=O)cc2nn1-c1ccc(Oc2ccccc2F)cc1 [Compound 29]
[1]
  EC50: < 0.99 µM
1b (BK) NS5bΔ21
  IC50: < 0.99 µM

## CNC(=O)c1c2cc(C3CC3)c(N(CCCO)S(C)(=O)=O)cc2nn1-c1ccc(Oc2ccc(F)cc2)cc1 [Compound 30]
[1]
  EC50: < 0.99 µM
1b (BK) NS5bΔ21
  IC50: < 0.99 µM

## CNC(=O)c1c2cc(C3CC3)c(N(CCNC(=O)Cc3nn[nH]n3)S(C)(=O)=O)cc2nn1-c1ccc(Nc2ccc(F)cc2)cc1 [Compound 31]
1b (BK) NS5bΔ21
  IC50: < 0.99 µM

## CNC(=O)c1c2cc(C3CC3)c(N(CCO)S(C)(=O)=O)cc2nn1-c1ccc(Nc2cccc(O)c2)cc1 [Compound 33]
1b (BK) NS5bΔ21
  IC50: 10 to 50 µM

## CNC(=O)c1c2cc(C3CC3)c(N(CCO)S(C)(=O)=O)cc2nn1-c1ccc(Oc2ccccc2)cc1 [Compound 35]
[1]
  EC50: < 0.99 µM
1b (BK) NS5bΔ21
  IC50: 1 to 9.99 µM

## CNC(=O)c1c2cc(C3CC3)c(N(CCNC(C)=O)S(C)(=O)=O)cc2nn1-c1ccc(Oc2ccc(F)cc2)cc1 [Compound 36]
[1]
  EC50: 1 to 9.99 µM
1b (BK) NS5bΔ21
  IC50: 1 to 9.99 µM

## CNC(=O)c1c2cc(C3CC3)c(N(CCNC(C)=O)S(C)(=O)=O)cc2nn1-c1ccc(Br)cc1 [Compound 37]
[1]
  EC50: 1 to 9.99 µM
1b (BK) NS5bΔ21
  IC50: 1 to 9.99 µM

## CCN(c1cc2nn(-c3ccc(NC(C)C)cc3)c(C(=O)NC)c2cc1C1CC1)S(C)(=O)=O [Compound 38]
[1]
  EC50: < 0.99 µM
1b (BK) NS5bΔ21
  IC50: 1 to 9.99 µM

## CCN(C(C)=O)c1cc2nn(-c3ccc(Br)cc3)c(C(=O)NC)c2cc1C1CC1 [Compound 48, 6-[Acetyl(ethyl)amino]-2-(4-bromophenyl)-5-cyclopropyl-N-methyl-2H-indazole-3-carboxamide]
[1]
  EC50: 1 to 9.99 µM
1b (BK) NS5bΔ21
  IC50: 10 to 50 µM

## CNC(=O)c1c2cc(C3CC3)c(N(CCCO)S(C)(=O)=O)cc2nn1-c1ccc(C(C)C)cc1 [Compound 50, 5-cyclopropyl-6-[(3-hydroxypropyl)(methylsulfonyl)amino]-N-methyl-2-[4-(propan-2-yl)-phenyl]-2H-indazole-3-carboxamide]
[1]
  EC50: 1 to 9.99 µM
1b (BK) NS5bΔ21
  IC50: 1 to 9.99 µM

## CCn1ccnc1-c1cc2nn(-c3ccc(F)cc3)c(C(=O)NC)c2cc1C1CC1 [Compound 84, 5-Cyclopropyl-6-(1-ethyl-1H-imidazol-2-yl)-2-(4-fluorophenyl)-N-methyl-2H-indazole-3-carboxamide]
[1]
  EC50: 10 to 50 µM

## CNC(=O)c1c2cc(C3CC3)c(N3CCNS3(=O)=O)cc2nn1-c1ccc(Br)cc1 [Compound 103, 2-(4-Bromophenyl)-5-cyclopropyl-6-(1,1-dioxido-1,2,5-thiadiazolidin-2-yl)-N-methyl-2H-indazole-3-carboxamide]
1b (BK) NS5bΔ21
  IC50: 1 to 9.99 µM

## CCN(c1cc2nn(-c3ccc(OCC(C)C)cc3)c(C(=O)NC)c2cc1C1CC1)S(C)(=O)=O [Compound 121]
1b (BK) NS5bΔ21
  IC50: 1 to 9.99 µM

## CCN(c1cc2nn(-c3ccc(F)cc3)c(C(=O)NC)c2cc1C(C)C)S(C)(=O)=O [Compound 130]
[1]
  EC50: 10 to 50 µM

## CCN(c1ccc2c(C(=O)NC)n(-c3ccc(F)cc3)nc2c1)S(C)(=O)=O [Compound 137]
1b (BK) NS5bΔ21
  IC50: 10 to 50 µM

## CNC(=O)c1c2cc(C3CC3)c(-c3cncn3C)cc2nn1-c1ccc(F)cc1 [Compound 158]
1b (BK) NS5bΔ21
  IC50: 10 to 50 µM

## CNC(=O)c1c2cc(C3CC3)c(-c3ncc(CO)s3)cc2nn1-c1ccc(F)cc1 [Compound 159]
[1]
  EC50: 10 to 50 µM

## CCN(C)S(=O)(=O)c1cc2nn(-c3ccc(F)cc3)c(C(=O)NC)c2cc1C1CC1 [Compound 227]
[1]
  EC50: 10 to 50 µM
